In patent US9428445B2, “Amine compounds and their use as zero or low VOC neutralizers” (ANGUS Chemical Company, priority 2012, dated 2016):
Structures can show the parent of a compound that is named as a salt. Where two headings read alike, the source gives them in different places.

Assays:
Assay type in all cases: physicochemical
[1] = Neutral equivalent by titration
Experimental: (§1) Also using titration, the neutral equivalent is determined to be 168, which matches the molecule's molecular weight. However, upon inclusion into a paint formulation, slightly less (2%) of this molecule is needed to regulate pH than a control compound (2-amino-2-ethyl-1,3-propanediol (AEPD)) with a measured neutralization equivalent of 124. Thus, the second pKa contributes to pH regulation and contributes to the value of the compound as a neutralizer in paint formulations.

[2] = Acid dissociation constants by standard titration method; conditions: read-out: acid dissociation constant (pKa)
Experimental: as §1

[3] = Thermal analysis (TGA)
From the text: (§2) Thus, this material can be classified as a zero VOC using any of the three methods outlined in CARB Method 310.

[4] = VOC determination per CARB Method 310 (vapor pressure, GC test)
Experimental: Zero VOC can be defined in one of three ways according to California Air Resources Board (CARB) Method 310 for VOC determination: the vapor pressure can be below 0.1 mm Hg at 20° C., the boiling point can be above 216° C., or the compound must pass a gas chromatograph test (EPA Method 18, 8240B, 8260B,
as §2

SMILES	neutral equivalent / neutralization equivalent [1]	pKa ([2]; primary amine)	pKa ([2]; sodium carboxylate)	boiling point [3]	decomposition temperature [3] [°C]	vapor pressure [4]	VOC classification ([4]; any of the three methods outlined in CARB Method 310)	elution on the GC ([4]; cannot be vaporized, GC testing methods for CARB compliance)
CCC(N)(CO)CO [AEPD, 2-amino-2-ethyl-1,3-propanediol, reference compound]	124							
CC(C)(N)CNCC(=O)O [Example 1, N-[2-(amino)-2-methylpropyl]-glycine (Sodium Salt)]	168	9.9	6.1	no boiling point	> 275	no discernable vapor pressure	zero VOC	does not elute
